# Source: PubChem BioAssay (NCI)
#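 Step 1: Grow cells in 96-well plates. Step 2: Expose to compound for 48 hours at 5 concentrations. Step 3: Interpolate endpoints linearly; if unreached, use highest concentration. Abbreviation: GI50, concentration required for 50% inhibition of growth. The concentration for full growth arrest is given as TGI.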
# Tests used:
# Test in all cases: NCI tumour cell line growth inhibition, 48 h
# NCI-H522 lung = test system: NCI-H522 lung
# COLO 205 colon = test system: COLO 205 colon
# SK-MEL-5 melanoma = test system: SK-MEL-5 melanoma
# NCI/ADR-RES ovarian = test system: NCI/ADR-RES ovarian
# DU-145 prostate = test system: DU-145 prostate
# TK-10 renal = test system: TK-10 renal
# MALME-3M melanoma = test system: MALME-3M melanoma
# BT-549 breast = test system: BT-549 breast
# SN12C renal = test system: SN12C renal
# MDA-MB-231 breast = test system: MDA-MB-231 breast
# HCC-2998 colon = test system: HCC-2998 colon
# ACHN renal = test system: ACHN renal
# MOLT-4 leukemia = test system: MOLT-4 leukemia
# 786-0 renal = test system: 786-0 renal
# SF-295 CNS = test system: SF-295 CNS
# HOP-92 NSCLC = test system: HOP-92 NSCLC
# CAKI-1 renal = test system: CAKI-1 renal
# NCI-H460 lung = test system: NCI-H460 lung
# K-562 leukemia = test system: K-562 leukemia
# OVCAR-5 ovarian = test system: OVCAR-5 ovarian
# RXF 393 renal = test system: RXF 393 renal
# EKVX NSCLC = test system: EKVX NSCLC
# LOX IMVI melanoma = test system: LOX IMVI melanoma
# M14 melanoma = test system: M14 melanoma
# HS 578T breast = test system: HS 578T breast
# SF-539 CNS = test system: SF-539 CNS
# MDA-MB-435 = test system: MDA-MB-435
# HCT-116 colon = test system: HCT-116 colon
# OVCAR-8 ovarian = test system: OVCAR-8 ovarian
# HCT-15 colon = test system: HCT-15 colon
# U251 CNS = test system: U251 CNS
# CCRF-CEM leukemia = test system: CCRF-CEM leukemia
# SNB-75 CNS = test system: SNB-75 CNS
# PC-3 prostate = test system: PC-3 prostate
# UACC-62 melanoma = test system: UACC-62 melanoma
# KM12 colon = test system: KM12 colon
# HL-60(TB) leukemia = test system: HL-60(TB) leukemia
# A498 renal = test system: A498 renal
# UACC-257 melanoma = test system: UACC-257 melanoma
# IGROV1 ovarian = test system: IGROV1 ovarian
# SR leukemia = test system: SR leukemia
# SNB-19 CNS = test system: SNB-19 CNS
# HOP-62 NSCLC = test system: HOP-62 NSCLC
# NCI-H23 lung = test system: NCI-H23 lung
# SF-268 CNS = test system: SF-268 CNS
# NCI-H226 lung = test system: NCI-H226 lung
# A549 NSCLC = test system: A549 NSCLC
# SK-MEL-28 melanoma = test system: SK-MEL-28 melanoma
# T-47D breast = test system: T-47D breast
# HT29 colon = test system: HT29 colon
# SK-MEL-2 melanoma = test system: SK-MEL-2 melanoma
# UO-31 renal = test system: UO-31 renal
# OVCAR-4 ovarian = test system: OVCAR-4 ovarian
# SK-OV-3 ovarian = test system: SK-OV-3 ovarian
# SW-620 colon = test system: SW-620 colon
# RPMI-8226 leukemia = test system: RPMI-8226 leukemia
# OVCAR-3 ovarian = test system: OVCAR-3 ovarian
smiles,measurement,setting,value
CN1CCN(C(=O)OCc2nc3c(N4CCOCC4)nc(Cl)nc3n2C)CC1,GI50,NCI-H522 lung,1.1 µM
same,TGI,NCI-H522 lung,2.74 µM
same,GI50,COLO 205 colon,1.44 µM
same,TGI,COLO 205 colon,4.1 µM
same,GI50,SK-MEL-5 melanoma,1.55 µM
same,TGI,SK-MEL-5 melanoma,2.89 µM
same,GI50,NCI/ADR-RES ovarian,2.46 µM
same,TGI,NCI/ADR-RES ovarian,9.59 µM
same,GI50,DU-145 prostate,1.39 µM
same,TGI,DU-145 prostate,3.09 µM
same,GI50,TK-10 renal,1.59 µM
same,TGI,TK-10 renal,3.05 µM
same,GI50,MALME-3M melanoma,1.5 µM
same,TGI,MALME-3M melanoma,2.87 µM
same,GI50,BT-549 breast,1.09 µM
same,TGI,BT-549 breast,2.44 µM
same,GI50,SN12C renal,1.45 µM
same,TGI,SN12C renal,3.06 µM
same,GI50,MDA-MB-231 breast,0.566 µM
same,TGI,MDA-MB-231 breast,2.22 µM
same,GI50,HCC-2998 colon,1.62 µM
same,TGI,HCC-2998 colon,3.15 µM
same,GI50,ACHN renal,0.831 µM
same,TGI,ACHN renal,2.11 µM
same,GI50,MOLT-4 leukemia,1.19 µM
same,TGI,MOLT-4 leukemia,4.69 µM
same,GI50,786-0 renal,1.56 µM
same,TGI,786-0 renal,3 µM
same,GI50,SF-295 CNS,8.35 µM
same,TGI,SF-295 CNS,20.7 µM
same,GI50,HOP-92 NSCLC,0.675 µM
same,TGI,HOP-92 NSCLC,2.23 µM
same,GI50,CAKI-1 renal,1.03 µM
same,TGI,CAKI-1 renal,2.31 µM
same,GI50,NCI-H460 lung,1.64 µM
same,TGI,NCI-H460 lung,3.51 µM
same,GI50,K-562 leukemia,1.21 µM
same,TGI,K-562 leukemia,15.7 µM
same,GI50,OVCAR-5 ovarian,1.6 µM
same,TGI,OVCAR-5 ovarian,3.54 µM
same,GI50,RXF 393 renal,1.08 µM
same,TGI,RXF 393 renal,2.31 µM
same,GI50,EKVX NSCLC,1.59 µM
same,TGI,EKVX NSCLC,2.98 µM
same,GI50,LOX IMVI melanoma,0.579 µM
same,TGI,LOX IMVI melanoma,1.99 µM
same,GI50,M14 melanoma,1.19 µM
same,TGI,M14 melanoma,2.65 µM
same,GI50,HS 578T breast,1.64 µM
same,TGI,HS 578T breast,5.38 µM
same,GI50,SF-539 CNS,1.39 µM
same,TGI,SF-539 CNS,2.73 µM
same,GI50,MDA-MB-435,1.16 µM
same,TGI,MDA-MB-435,2.44 µM
same,GI50,HCT-116 colon,0.343 µM
same,TGI,HCT-116 colon,1.62 µM
same,GI50,OVCAR-8 ovarian,1.33 µM
same,TGI,OVCAR-8 ovarian,5.68 µM
same,GI50,HCT-15 colon,0.905 µM
same,TGI,HCT-15 colon,2.79 µM
same,GI50,U251 CNS,1.52 µM
same,TGI,U251 CNS,3.39 µM
same,GI50,CCRF-CEM leukemia,0.313 µM
same,TGI,CCRF-CEM leukemia,1.78 µM
same,GI50,SNB-75 CNS,1.35 µM
same,TGI,SNB-75 CNS,2.73 µM
same,GI50,PC-3 prostate,1.33 µM
same,TGI,PC-3 prostate,2.92 µM
same,GI50,UACC-62 melanoma,1.38 µM
same,TGI,UACC-62 melanoma,2.8 µM
same,GI50,KM12 colon,2.05 µM
same,TGI,KM12 colon,6.08 µM
same,GI50,HL-60(TB) leukemia,0.65 µM
same,TGI,HL-60(TB) leukemia,3.28 µM
same,GI50,A498 renal,1.15 µM
same,TGI,A498 renal,2.46 µM
same,GI50,UACC-257 melanoma,1.39 µM
same,TGI,UACC-257 melanoma,3.22 µM
same,GI50,IGROV1 ovarian,1.24 µM
same,TGI,IGROV1 ovarian,2.57 µM
same,GI50,SR leukemia,0.241 µM
same,TGI,SR leukemia,1.33 µM
same,GI50,SNB-19 CNS,1.65 µM
same,TGI,SNB-19 CNS,3.62 µM
same,GI50,HOP-62 NSCLC,1.53 µM
same,TGI,HOP-62 NSCLC,4.92 µM
same,GI50,NCI-H23 lung,1.55 µM
same,TGI,NCI-H23 lung,3.3 µM
same,GI50,SF-268 CNS,1.59 µM
same,TGI,SF-268 CNS,3.72 µM
same,GI50,NCI-H226 lung,1.96 µM
same,TGI,NCI-H226 lung,5.41 µM
same,GI50,A549 NSCLC,1.81 µM
same,TGI,A549 NSCLC,5.25 µM
same,GI50,SK-MEL-28 melanoma,1.58 µM
same,TGI,SK-MEL-28 melanoma,3.11 µM
same,GI50,T-47D breast,2.01 µM
same,TGI,T-47D breast,4.99 µM
same,GI50,HT29 colon,0.898 µM
same,TGI,HT29 colon,3.17 µM
same,GI50,SK-MEL-2 melanoma,1.62 µM
same,TGI,SK-MEL-2 melanoma,3.45 µM
same,GI50,UO-31 renal,1.07 µM
same,TGI,UO-31 renal,2.29 µM
same,GI50,OVCAR-4 ovarian,1.06 µM
same,TGI,OVCAR-4 ovarian,2.27 µM
same,GI50,SK-OV-3 ovarian,6.15 µM
same,TGI,SK-OV-3 ovarian,18.8 µM
same,GI50,SW-620 colon,0.484 µM
same,TGI,SW-620 colon,1.83 µM
same,GI50,RPMI-8226 leukemia,0.33 µM
same,TGI,RPMI-8226 leukemia,1.63 µM
same,GI50,OVCAR-3 ovarian,0.547 µM
same,TGI,OVCAR-3 ovarian,2.15 µM
